What was measured:
[1] = tested on: human keratinocytes; experiment: Microscopic examination of treated keratinocyte cultures; assay type: cell-based
[2] = target: T1, rabbit reticulocyte 15-LO (Oryctolagus cuniculus, UniProt P12530); experiment: 15-LO biochemical assay (15-HETE formation, TLC quantitation); settings: for Percent Inhibition of 15-LO: negative = increased activity
T1 construct: 24.5 units of a rabbit reticulocyte 15-LO preparation; tissue Oxford Biochemicals; host or cells: rabbit reticulocytes
T1 sequence (P12530 1-663): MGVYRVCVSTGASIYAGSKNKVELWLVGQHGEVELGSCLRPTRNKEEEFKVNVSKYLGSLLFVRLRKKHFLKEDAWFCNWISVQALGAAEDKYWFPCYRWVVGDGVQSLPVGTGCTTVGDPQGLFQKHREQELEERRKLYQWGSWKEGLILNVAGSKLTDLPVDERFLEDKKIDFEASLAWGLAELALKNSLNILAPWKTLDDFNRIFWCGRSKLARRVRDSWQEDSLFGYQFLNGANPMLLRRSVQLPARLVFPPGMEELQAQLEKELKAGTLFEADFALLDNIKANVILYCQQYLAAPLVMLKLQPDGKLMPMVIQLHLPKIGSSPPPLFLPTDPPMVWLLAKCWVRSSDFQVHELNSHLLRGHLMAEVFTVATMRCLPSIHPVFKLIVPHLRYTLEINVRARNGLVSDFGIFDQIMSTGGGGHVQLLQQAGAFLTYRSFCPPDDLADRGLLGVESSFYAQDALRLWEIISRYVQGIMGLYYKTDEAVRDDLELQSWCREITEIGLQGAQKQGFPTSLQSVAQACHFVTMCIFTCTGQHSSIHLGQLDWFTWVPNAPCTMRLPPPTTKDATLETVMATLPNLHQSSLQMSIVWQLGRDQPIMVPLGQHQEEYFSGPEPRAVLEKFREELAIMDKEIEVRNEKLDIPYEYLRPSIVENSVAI
Protocol: The inhibitory activity of dehydroabietic acid methyl ester was assessed by performing biochemical assays that utilized 1) human recombinant COX II, 2) ovine COX I, and 3) rabbit reticulocyte 15-LO. In all biochemical assays dehydroabietic acid methyl ester and inhibitory control compounds were used at a final concentration of […]. The COX I and II biochemical assays have been previously described in this document (see COX I and II Assays Used to Test X-8 Fractions and Purified Compounds, Example 3). The 15-LO assay was done using a modified version of a previously reported method (Corey, E. J., Shih, C., and Cashman, J. R. (1983) Proc. Natl. Acad. Sci. v80, p3,581; Sigal, E., Grunberger, D., Cashman, J. R., Craik, C. S., Caughey, G. H., and Nadel, J. A. (1988) Biochem. Biophys. Res Comm. v150(1), p376). Briefly, 24.5 units of a rabbit reticulocyte 15-LO preparation (corresponding to 7 ug total protein)(Oxford Biochemicals) was placed in potassium phosphate buffer (10 mM, pH 6.0). Dehydroabietic acid methyl ester was added to give a final concentration of 250 uM. The reaction was initiated by the addition of ^3H-AA (50 uM final concentration) and maintained at 37° C., for 5 min. The reaction was stopped by the addition of ice-cold methanol containing NaCNBH3 (to reduce peroxides). A portion of each reaction solution was then separated via TLC (250 μm PK6F 60 Å silica gel preparative TLC plate, Whatman), co-spotted with AA and 15-HETE (a metabolic product of 15-LO) and developed in hexane/ether/acetic acid (50:50:1) to separate 15-HETE from AA (Rf=0.29 and 0.5, respectively). Bands on the TLC plates were then visualized by I2 and scraped for quantitation. As with the COX I and II assays, percent inhibition was calculated based on a comparison between incubations performed in the presence and absence of dehydroabietic acid methyl ester (see “Fractionation and Bioassay Analysis of Fractions Derived from Extract-8” above).

CC(C)(c1ccccc1)c1ccc(O)cc1 [4-Cumylphenol, 4-cumylphenol]
toxicity when treated cultures were examined microscopically [1]: lack of toxicity
Percent Inhibition of 15-LO ([2]; pure 4-cumylphenol, concentration not given): −40.0%

COC(=O)[C@]1(C)CCC[C@]2(C)c3ccc(C(C)C)cc3CC[C@@H]12 [Dehydroabietic acid methyl ester, dehydroabietic acid methyl ester]
toxicity when treated cultures were examined microscopically [1]: lack of toxicity
increase of the enzymatic activity of 15-LO ([2]; 250 uM): over 93%
Percent Inhibition of 15-LO ([2]; final concentration of 250 uM): −93.6%

Source: patent publication US6365634B1, “Naturally occurring compounds and their derivatives as cyclooxygenase 2 and/or 5-lipoxygenase inhibitors” (C-P Technology Limited Partnership, priority 1997, dated 2002)
